Experimental data: patent US20250332173A1, “COMPOUNDS AND METHODS FOR MODULATING NUCLEIC ACID SPLICING” (REMIX THERAPEUTICS INC., priority 2021, published 2025)
pIC50: −log10 of the molar value. Read-outs that look alike come from different tables or passages of the source.

Experiments:
Format in all cases: cell-based, human
HTT mRNA = test: RT-qPCR splicing assay, HTT canonical junction (CJ) and alternative junction (AJ) mRNA; settings: Homo sapiens; for AC50: increase in HTT alternative junction (AJ) mRNA, read-out: HTT AJ AC50
Description: (§1) The expression of a target mRNA was measured by detecting the formation of an exon-exon junction in the canonical transcript (CJ). A compound mediated exon-inclusion event was detected by observing an increase in formation of a new junction with an alternative exon (AJ). Real-time qPCR assays were used to detect these splicing switches and interrogate the potency of various compounds towards different target genes. A high-throughput real time quantitative PCR (RT-qPCR) assay was developed to measure these two isoforms of the mRNA (CJ and AJ) for exemplary genes, such as HTT, SMN2, and MYB, together with a control housekeeping gene, GAPDH or GUSB or PPIA, used for normalization. Briefly, the A673 or K562 cell line was treated with various compounds described herein (e.g., compounds of Formula (I)). After treatment, the levels of the HTT, MYB, or SMN2 mRNA targets were determined from each sample of cell lysate by cDNA synthesis followed by qPCR.
(§2) • Cells-to-CT 1-step kit: ThermoFisher A25602, Cells-to-CT lysis reagent: ThermoFisher 4391851C, TaqMan™ Fast Virus 1-Step Master Mix: ThermoFisher 4444436 • GAPDH: VIC-PL, ThermoFisher 4326317E (Assay: Hs99999905_m1)—used for K562/suspension cell lines • GUSB: VIC-PL, ThermoFisher 4326320E (Assay: Hs99999908_m1)—used for K562/suspension cell lines • PPIA: VIC-PL, ThermoFisher 4326316E (Assay: Hs99999904_m1)—used for A673/adherent cell lines
(§3) The A673 cell line was cultured in DMEM with 10% FBS. Cells were diluted with full growth media and plated in a 96-well plate (15,000 cells in 100 ul media per well). The plate was incubated at 37° C. with 5% CO2 for 24 hours to allow cells to adhere. An 11-point 3-fold serial dilution of the compounds was made in DMSO then diluted in media in an intermediate plate. Compounds were transferred from the intermediate plate to the cell plate with the top dose at a final concentration of 10 uM in the well. Final DMSO concentration was kept at or below 0.25%. The cell plate was returned to the incubator at 37° C. with 5% CO2 for an additional 24 hours.
(§4) The K562 cell line was cultured in IMDM with 10% FBS. For K562, cells were diluted with full growth media and plated in either a 96-well plate (50,000 cells in 50 uL media per well) or a 384-well plate (8,000-40,000 cells in 45 uL media per well). An 11-point 3-fold serial dilution of the compounds were made in DMSO then diluted in media in an intermediate plate. Compound was transferred from the intermediate plate to the cell plate with the top dose at a final concentration of 10 uM in the well. Final DMSO concentration was kept at or below 0.25%. Final volume was 100 uL for 96-well plate and 50 uL for 384-well plate. The cell plate was then placed in an incubator at 37° C. with 5% CO2 for 24 hours.
(§5) The cells were then gently washed with 50 uL-100 uL cold PBS before proceeding to addition of lysis buffer. 30 uL-50 uL of room temperature lysis buffer with DNAse I (and optionally RNAsin) was added to each well. Cells were shaken/mixed thoroughly at room temperature for 5-10 minutes for lysis to take place and then 3 uL-5 uL of room temperature stop solution was added and wells were shaken/mixed again. After 2-5 minutes, the cell lysate plate was transferred to ice for RT-qPCR reaction setup. The lysates could also be frozen at −80° C. for later use.
(§6) In some cases, a direct lysis buffer was used. An appropriate volume of 3× lysis buffer (10 mM Tris, 150 mM NaCl, 1.5%-2.5% Igepal and 0.1-1 U/uL RNAsin, pH 7.4) was directly added to either K562 or A673 cells in media and mixed by pipetting 3 times. The plates were then incubated at room temperature with shaking/rocking for 20-50 minutes to allow for lysis to take place. After this time, the cell lysate plate was transferred to ice to set up for the RT-qPCR reactions. The lysates could also be frozen at −80° C. for later use.

MYB mRNA = test: RT-qPCR splicing assay, MYB canonical junction (CJ) and alternative junction (AJ) mRNA; settings: Homo sapiens; for AC50: increase in MYB alternative junction (AJ) mRNA, read-out: MYB AJ AC50
Description: as §1, §2, §3, §4, §5, §6

SMN2 mRNA = test: RT-qPCR splicing assay, SMN2 canonical junction (CJ) mRNA; settings: Homo sapiens
Description: as §1, §3, §4, §5, §6
(§7) To set up 10 uL RT-qPCR reactions, cell lysates were transferred to 384-well qPCR plates containing the master mix according to the table below. The plates were sealed, gently vortexed, and spun down before the run. The volumes were adjusted accordingly in some instances where the reaction was carried in 20 uL. The table below summarizes the components of the RT-qPCR reactions:
(§8) The RT-qPCR reaction was performed using a QuantStudio (ThermoFisher) under the following fast cycling conditions.

Target C = test: RT-qPCR splicing assay panel, Target C canonical junction (CJ) mRNA; settings: Homo sapiens
Description: as §1, §3, §4, §5, §6, §7, §8

[1] = decrease in HTT canonical junction (CJ) mRNA, RT-qPCR, read-out: HTT CJ IC50
[2] = Table 5 panel, canonical junction qPCR, compound concentration having 50% response in CJ decrease, read-out: HTT IC50 (decrease in CJ mRNA levels)
[3] = Table 5 panel, canonical junction qPCR, compound concentration having 50% response in CJ decrease, read-out: MYB IC50 (decrease in CJ mRNA levels)
[4] = decrease in MYB canonical junction (CJ) mRNA, RT-qPCR, read-out: MYB CJ IC50
[5] = Table 5 panel, canonical junction qPCR, compound concentration having 50% response in CJ decrease, read-out: SMN2 IC50 (decrease in CJ mRNA levels)
[6] = Table 5 panel, canonical junction qPCR, compound concentration having 50% response in CJ decrease, read-out: Target C IC50 (decrease in CJ mRNA levels)

SMILES | pIC50 (HTT mRNA; [1]) | pIC50 (HTT mRNA; [2]) | pIC50 (MYB mRNA; [3]) | pIC50 (MYB mRNA; [4]) | pIC50 (SMN2 mRNA; [5]) | pIC50 (Target C; [6]) | pIC50 (HTT mRNA; canonical junction qPCR panel, Table 5, read-out: HTT (decrease in CJ mRNA levels, IC50)) | pIC50 (MYB mRNA; canonical junction qPCR panel, Table 5, read-out: MYB (decrease in CJ mRNA levels, IC50)) | pIC50 (SMN2 mRNA; canonical junction qPCR panel, Table 5, read-out: SMN2 (decrease in CJ mRNA levels, IC50)) | pIC50 (Target C; canonical junction qPCR panel, Table 5, read-out: Target C (decrease in CJ mRNA levels, IC50)) | AC50 (HTT mRNA; RT-qPCR) [µM] | AC50 (MYB mRNA; RT-qPCR) [µM]
Cc1cn2nc(-c3ccc4nc(N5CCNC6(CC6)C5)[nH]c(=O)c4c3)cc(C)c2n1 [Compound 190] | 6.00 to 7.00 | 6.00 to 7.00 | 6.00 to 7.00 | 6.00 to 7.00 | 6.00 to 7.00 | 6.00 to 7.00 |  |  |  |  | 0.1 to 1 | 0.1 to 1
Cc1cc(-c2ccc3nc(N4CCNCC4)[nH]c(=O)c3c2)cc2cn(C)nc12 [Compound 166] | 5.00 to 6.00 | 5.00 to 6.00 | 5.00 to 6.00 | 5.00 to 6.00 | 5.00 to 6.00 | 5.00 to 6.00 |  |  |  |  | 1 to 10 | 1 to 10
CN1CCN(c2ccc3nc(-c4ccc5nn(C)cc5c4)[nH]c(=O)c3c2)CC1 [Compound 108] | < 5.00 | < 5.00 | < 5.00 | < 5.00 | 5.00 to 6.00 | 5.00 to 6.00 |  |  |  |  | > 10 | > 10
Cc1cn2cc(-c3ccc4nc(N5CCNC6(CC6)C5)[nH]c(=O)c4c3)cc(F)c2n1 [Compound 191] | < 5.00 | < 5.00 | < 5.00 | < 5.00 | < 5.00 | < 5.00 |  |  |  |  | > 10 | > 10
Cc1cn2cc(-c3nc4ccc(N5CCNCC5)cc4c(=O)[nH]3)cc(F)c2n1 [Compound 115] | < 5.00 | < 5.00 | 5.00 to 6.00 | 6.00 to 7.00 | > 7.00 | < 5.00 |  |  |  |  | > 10 | 1 to 10
Cc1cc(-c2nc3ccc(N(C)C4CCN(C)CC4)cc3c(=O)[nH]2)cc2cn(C)nc12 [Compound 239] | < 5.00 | < 5.00 | < 5.00 | 5.00 to 6.00 | 5.00 to 6.00 | < 5.00 |  |  |  |  | > 10 | > 10
Cc1cc(-c2ccc3nc(NC4CCN(C)CC4)[nH]c(=O)c3c2)cc2cn(C)nc12 [Compound 167] | < 5.00 | < 5.00 | < 5.00 | < 5.00 | < 5.00 | < 5.00 |  |  |  |  | > 10 | > 10
Cc1cn2cc(-c3nc4ccc(N5CCN(C)CC5)cc4c(=O)[nH]3)cc(F)c2n1 [Compound 111] | 5.00 to 6.00 | 5.00 to 6.00 | 5.00 to 6.00 | 5.00 to 6.00 | 6.00 to 7.00 | 5.00 to 6.00 |  |  |  |  | 1 to 10 | 1 to 10
Cc1cc(-c2nc3ccc(N(C)C4CCNCC4)cc3c(=O)[nH]2)cc2cn(C)nc12 [Compound 121, 2-(2,7-dimethyl-2H-indazol-5-yl)-6-(methyl(piperidin-4-yl)amino)quinazolin-4(3H)-one] | < 5.00 | 5.00 to 6.00 | < 5.00 | 5.00 to 6.00 | 6.00 to 7.00 | < 5.00 |  |  |  |  | > 10 | > 10

The next lines start with results.

pIC50 (HTT mRNA; [1]) | pIC50 (HTT mRNA; [2]) | pIC50 (MYB mRNA; [3]) | pIC50 (MYB mRNA; [4]) | pIC50 (SMN2 mRNA; [5]) | pIC50 (Target C; [6]) | pIC50 (HTT mRNA; canonical junction qPCR panel, Table 5, read-out: HTT (decrease in CJ mRNA levels, IC50)) | pIC50 (MYB mRNA; canonical junction qPCR panel, Table 5, read-out: MYB (decrease in CJ mRNA levels, IC50)) | pIC50 (SMN2 mRNA; canonical junction qPCR panel, Table 5, read-out: SMN2 (decrease in CJ mRNA levels, IC50)) | pIC50 (Target C; canonical junction qPCR panel, Table 5, read-out: Target C (decrease in CJ mRNA levels, IC50)) | SMILES | AC50 (HTT mRNA; RT-qPCR) [µM] | AC50 (MYB mRNA; RT-qPCR) [µM]
< 5.00 | < 5.00 | < 5.00 | < 5.00 | 6.00 to 7.00 | < 5.00 |  |  |  |  | Cc1cn2cc(-c3cc(F)c4c(=O)n(C5CCNC6(CC6)C5)ccc4c3)cc(F)c2n1 (stereo not drawn) [Compound 471, 2-{4-azaspiro[2.5]octan-7-yl}-8-fluoro-6-{8-fluoro-2-methylimidazo[1,2-a]pyridin-6-yl}isoquinolin-1-one] | > 10 | > 10
6.00 to 7.00 | 6.00 to 7.00 | > 7.00 | > 7.00 | > 7.00 | 6.00 to 7.00 |  |  |  |  | Cc1cn2cc(-c3cc(F)c4c(=O)n([C@H]5CC[C@@H](N(C)C)CC5)ccc4c3)cc(F)c2n1 [Compound 656] | 0.1 to 1 | < 0.1
< 5.00 | < 5.00 | < 5.00 | < 5.00 | < 5.00 | < 5.00 |  |  |  |  | Cc1cn2nc(-c3ccc4nc(NC5CCNCC5)[nH]c(=O)c4c3)cc(C)c2n1 [Compound 192] | > 10 | > 10
< 5.00 | < 5.00 | < 5.00 | < 5.00 | < 5.00 | < 5.00 |  |  |  |  | Cc1cn2cc(-c3ccc4nc(NC5CCNCC5)[nH]c(=O)c4c3)cc(F)c2n1 [Compound 238] | > 10 | > 10
> 7.00 |  |  | 6.00 to 7.00 |  |  | > 7.00 | 6.00 to 7.00 | > 7.00 | 6.00 to 7.00 | Cc1cn2nc(-c3ccc4c(=O)n([C@@H]5CCNC6(CC6)C5)ncc4n3)cc(C)c2n1 [Compound 1298] | < 0.1 | 0.1 to 1
5.00 to 6.00 | 5.00 to 6.00 | 5.00 to 6.00 | 5.00 to 6.00 | 5.00 to 6.00 | 5.00 to 6.00 |  |  |  |  | Cc1cn2nc(-c3ccc4c(c3)CCN(C3CCNC(C)C3)C4=O)cc(C)c2n1 (stereo not drawn) [Compound 327] | 1 to 10 | 1 to 10
> 7.00 | > 7.00 | > 7.00 | > 7.00 | > 7.00 | 6.00 to 7.00 |  |  |  |  | Cc1cn2cc(-c3cc(F)c4c(=O)n([C@H]5CC[C@H](N(C)C)CC5)ccc4c3)cc(F)c2n1 [Compound 654] | < 0.1 | < 0.1
5.00 to 6.00 | 6.00 to 7.00 | > 7.00 | 6.00 to 7.00 | > 7.00 | 5.00 to 6.00 |  |  |  |  | Cc1cn2nc(-c3cc(F)c4c(=O)n(C56CCC(N)(CC5)C6)ccc4c3)cc(C)c2n1 [Compound 655] | 0.1 to 1 | < 0.1
6.00 to 7.00 | 6.00 to 7.00 | 6.00 to 7.00 | 6.00 to 7.00 | > 7.00 | 6.00 to 7.00 |  |  |  |  | Cc1cn2cc(-c3ccc4c(=O)n(C5CCNC(C)C5)cnc4c3)cc(F)c2n1 (stereo not drawn) [Compound 323] | 0.1 to 1 | 0.1 to 1
